Reference: paper PMC5218480 (PLoS ONE, 2017)

Tested on: MV-4-11 cells
Assay: Gene expression microarray analysis (Affymetrix PrimeView) and GSEA
Assay type: cell-based, human
Set-up: RFU PODN (11730768_x_at) / Fold change /veh PODN (11730768_x_at) / RFU LINC00158 (11744669_a_at) / Fold change /veh LINC00158 (11744669_a_at) / RFU DUSP10 (11751237_a_at) / Fold change /veh DUSP10 (11751237_a_at) / RFU ID3 (11757404_x_at) / Fold change /veh ID3 (11757404_x_at) / RFU PLEKHG5 (11737974_s_at) / Fold change /veh PLEKHG5 (11737974_s_at) / RFU LRRC4B (11730491_at) / Fold change /veh LRRC4B (11730491_at) / RFU GIMAP4 (11747438_a_at) / Fold change /veh GIMAP4 (11747438_a_at) / RFU KRT8 (11758183_x_at) / Fold change /veh KRT8 (11758183_x_at) / RFU CNN1 (11734310_a_at) / Fold change /veh CNN1 (11734310_a_at) / RFU VPS37D (11726825_at) / Fold change /veh VPS37D (11726825_at) / RFU C10orf10 (11716522_x_at) / Fold change /veh C10orf10 (11716522_x_at) / RFU KIR2DL2 /// KIR2DL4 /// KIR2DL5A /// KIR2DL5B /// KIR2DS1 /// KIR2DS2 /// KIR2DS3 /// KIR2DS4 /// KIR3DL3 /// KIR3DL3 /// KIR3DS1 (11738374_at) / Fold change /veh KIR2DL2 /// KIR2DL4 /// KIR2DL5A /// KIR2DL5B /// KIR2DS1 /// KIR2DS2 /// KIR2DS3 /// KIR2DS4 /// KIR3DL3 /// KIR3DL3 /// KIR3DS1 (11738374_at) / RFU C1QL1 (11718748_at) / Fold change /veh C1QL1 (11718748_at) / RFU TMPRSS4 (11747572_a_at) / Fold change /veh TMPRSS4 (11747572_a_at) / RFU HAMP (11756126_x_at) / Fold change /veh HAMP (11756126_x_at) / RFU RNFT2 (11725882_a_at) / Fold change /veh RNFT2 (11725882_a_at) / RFU NR4A2 (11747474_a_at) / Fold change /veh NR4A2 (11747474_a_at) / RFU ABCC12 (11746883_a_at) / Fold change /veh ABCC12 (11746883_a_at) / RFU TMEM136 (11760407_x_at) / Fold change /veh TMEM136 (11760407_x_at) / RFU CLDN22 /// WWC2 (11732394_at) / Fold change /veh CLDN22 /// WWC2 (11732394_at) / RFU HLA-DPB1 (11760878_x_at) / Fold change /veh HLA-DPB1 (11760878_x_at) / RFU SPINT1 (11716480_a_at) / Fold change /veh SPINT1 (11716480_a_at) / RFU GAP43 (11754022_s_at) / Fold change /veh GAP43 (11754022_s_at) / RFU A4GNT (11735810_at) / Fold change /veh A4GNT (11735810_at) / RFU PRB3 (11715151_x_at) / Fold change /veh PRB3 (11715151_x_at) / RFU TUBB4B (11761932_at) / Fold change /veh TUBB4B (11761932_at) / RFU CAPN14 (11732068_a_at) / Fold change /veh CAPN14 (11732068_a_at) / RFU TMCC2 (11721928_a_at) / Fold change /veh TMCC2 (11721928_a_at) / RFU IRGQ (11745062_a_at) / Fold change /veh IRGQ (11745062_a_at) / RFU FAM174B (11720279_a_at) / Fold change /veh FAM174B (11720279_a_at) / RFU TMPRSS4 (11748680_a_at) / Fold change /veh TMPRSS4 (11748680_a_at) / RFU FAM212B (11763350_a_at) / Fold change /veh FAM212B (11763350_a_at) / RFU PLEKHG5 (11743358_a_at) / Fold change /veh PLEKHG5 (11743358_a_at) / RFU ZSCAN30 (11745921_a_at) / Fold change /veh ZSCAN30 (11745921_a_at) / RFU CMKLR1 (11741424_a_at) / Fold change /veh CMKLR1 (11741424_a_at) / RFU LOC101060620 /// MAPK8IP1 (11723275_at) / Fold change /veh LOC101060620 /// MAPK8IP1 (11723275_at) / RFU SPTSSB (11747773_x_at) / Fold change /veh SPTSSB (11747773_x_at) / RFU PRSS12 (11739890_at) / Fold change /veh PRSS12 (11739890_at) / RFU BIN1 (11741810_x_at) / Fold change /veh BIN1 (11741810_x_at) / RFU WNT11 (11732464_a_at) / Fold change /veh WNT11 (11732464_a_at) / RFU C10orf10 (11716521_a_at) / Fold change /veh C10orf10 (11716521_a_at) / RFU C5orf56 (11738089_at) / Fold change /veh C5orf56 (11738089_at) / RFU CYB561 (11721691_x_at) / Fold change /veh CYB561 (11721691_x_at) / RFU ANKRD19P (11752326_a_at) / Fold change /veh ANKRD19P (11752326_a_at) / RFU OR2T12 /// OR2T33 /// OR2T8 (11738714_s_at) / Fold change /veh OR2T12 /// OR2T33 /// OR2T8 (11738714_s_at) / RFU VCAN (11748164_a_at) / Fold change /veh VCAN (11748164_a_at) / RFU JSRP1 (11732532_at) / Fold change /veh JSRP1 (11732532_at) / RFU KRTAP10-11 (11738290_x_at) / Fold change /veh KRTAP10-11 (11738290_x_at) / RFU MYO3A (11730013_a_at) / Fold change /veh MYO3A (11730013_a_at) / RFU EBF3 (11725865_a_at) / Fold change /veh EBF3 (11725865_a_at) / RFU CAMK2N1 (11719241_x_at) / Fold change /veh CAMK2N1 (11719241_x_at) / RFU C5orf56 (11738088_a_at) / Fold change /veh C5orf56 (11738088_a_at) / RFU OLFML3 (11715873_a_at) / Fold change /veh OLFML3 (11715873_a_at) / RFU LOC100653217 /// NTM (11731650_a_at) / Fold change /veh LOC100653217 /// NTM (11731650_a_at) / RFU MAPK11 (11762145_a_at) / Fold change /veh MAPK11 (11762145_a_at) / RFU FIZ1 (11724087_x_at) / Fold change /veh FIZ1 (11724087_x_at) / RFU OASL (11726364_x_at) / Fold change /veh OASL (11726364_x_at) / RFU SOX15 (11748057_x_at) / Fold change /veh SOX15 (11748057_x_at) / RFU CD79A (11719716_a_at) / Fold change /veh CD79A (11719716_a_at) / RFU HIST1H1D (11736915_at) / Fold change /veh HIST1H1D (11736915_at) / RFU CASKIN2 (11723855_a_at) / Fold change /veh CASKIN2 (11723855_a_at) / RFU LOC730098 (11760151_x_at) / Fold change /veh LOC730098 (11760151_x_at) / RFU OR4N2 (11742367_at) / Fold change /veh OR4N2 (11742367_at) / RFU PRRT2 (11749266_a_at) / Fold change /veh PRRT2 (11749266_a_at) / RFU SNX32 (11753110_a_at) / Fold change /veh SNX32 (11753110_a_at) / RFU CDHR5 (11726645_a_at) / Fold change /veh CDHR5 (11726645_a_at) / RFU RCAN1 (11760418_a_at) / Fold change /veh RCAN1 (11760418_a_at) / RFU FAM167A (11723789_a_at) / Fold change /veh FAM167A (11723789_a_at) / RFU FAM26E (11764081_at) / Fold change /veh FAM26E (11764081_at) / RFU ISYNA1 (11749810_s_at) / Fold change /veh ISYNA1 (11749810_s_at) / RFU ACY1 (11761880_at) / Fold change /veh ACY1 (11761880_at) / RFU 11764098_at / Fold change /veh 11764098_at / RFU SAMD14 (11745864_x_at) / Fold change /veh SAMD14 (11745864_x_at) / RFU NPB (11741838_a_at) / Fold change /veh NPB (11741838_a_at) / RFU TMPRSS6 (11731388_a_at) / Fold change /veh TMPRSS6 (11731388_a_at) / RFU KRTAP10-2 (11738614_at) / Fold change /veh KRTAP10-2 (11738614_at) / RFU ARHGAP8 /// PRR5-ARHGAP8 (11727945_x_at) / Fold change /veh ARHGAP8 /// PRR5-ARHGAP8 (11727945_x_at) / RFU KRTAP5-7 /// NADSYN1 (11734609_at) / Fold change /veh KRTAP5-7 /// NADSYN1 (11734609_at) / RFU RASL12 (11751679_a_at) / Fold change /veh RASL12 (11751679_a_at) / RFU CDKN2B (11736163_a_at) / Fold change /veh CDKN2B (11736163_a_at) / RFU PRF1 (11729649_at) / Fold change /veh PRF1 (11729649_at) / RFU, ZNF638 /// ZNF638-IT1 / Fold change vs veh, ZNF638 /// ZNF638-IT1 / RFU, PANK3 / Fold change vs veh, PANK3 / RFU, SH3YL1 / Fold change vs veh, SH3YL1 / RFU, ZEB2 / Fold change vs veh, ZEB2 / RFU, NRIP1 / Fold change vs veh, NRIP1 / RFU, PTTG1IP / Fold change vs veh, PTTG1IP / RFU, CAPN2 / Fold change vs veh, CAPN2 / RFU, MED14 / Fold change vs veh, MED14 / RFU, SNORA58 / Fold change vs veh, SNORA58 / RFU, C1orf63 / Fold change vs veh, C1orf63 / RFU, LRRFIP1 / Fold change vs veh, LRRFIP1 / RFU, NDUFAF7 / Fold change vs veh, NDUFAF7 / RFU, SLC12A2 / Fold change vs veh, SLC12A2 / RFU, IBTK / Fold change vs veh, IBTK / RFU, ESF1 / Fold change vs veh, ESF1 / Fold change vs veh, TMEM50B / RFU, TAOK1 / Fold change vs veh, TAOK1 / RFU, ACBD3 / Fold change vs veh, ACBD3 / RFU, TMA16 / Fold change vs veh, TMA16 / RFU, RWDD3 / Fold change vs veh, RWDD3 / RFU, BCAT1 / Fold change vs veh, BCAT1 / RFU, EDEM3 / Fold change vs veh, EDEM3 / RFU, TMEM33 / Fold change vs veh, TMEM33 / RFU, WDR75 / Fold change vs veh, WDR75 / RFU, AHCTF1 / Fold change vs veh, AHCTF1 / RFU, TFRC / Fold change vs veh, TFRC / RFU, ZDHHC17 / Fold change vs veh, ZDHHC17 / RFU, NOM1 / Fold change vs veh, NOM1 / RFU, ARL8B / Fold change vs veh, ARL8B / RFU, ZBTB11 / Fold change vs veh, ZBTB11 / RFU, TAMM41 / Fold change vs veh, TAMM41 / RFU, KIAA1704 /// LOC100996395 / Fold change vs veh, KIAA1704 /// LOC100996395 / RFU, ING1 / Fold change vs veh, ING1 / RFU, TRMT61B / Fold change vs veh, TRMT61B / RFU, FUBP3 / Fold change vs veh, FUBP3 / RFU, TP53 / Fold change vs veh, TP53 / RFU, TNKS2 / Fold change vs veh, TNKS2 / RFU, ZFP14 / Fold change vs veh, ZFP14 / RFU, ACTR2 / Fold change vs veh, ACTR2 / RFU, PPP3R1 / Fold change vs veh, PPP3R1 / RFU, PIK3R1 / Fold change vs veh, PIK3R1 / RFU, HNRNPA1 / Fold change vs veh, HNRNPA1 / RFU, RNF170 / Fold change vs veh, RNF170 / RFU, ZNF28 / Fold change vs veh, ZNF28 / RFU, RNGTT / Fold change vs veh, RNGTT / RFU, OGT / Fold change vs veh, OGT / RFU, BRD1 / Fold change vs veh, BRD1 / RFU, MARS / Fold change vs veh, MARS / RFU, ZNF655 / Fold change vs veh, ZNF655 / RFU, FAHD1 / Fold change vs veh, FAHD1 / RFU, BDP1 / Fold change vs veh, BDP1 / RFU, LRRCC1 / Fold change vs veh, LRRCC1 / RFU, ARID1A / Fold change vs veh, ARID1A / RFU, ZNF146 / Fold change vs veh, ZNF146 / RFU, ZNF330 / Fold change vs veh, ZNF330 / RFU, GPN3 / Fold change vs veh, GPN3 / RFU, C9orf123 / Fold change vs veh, C9orf123 / RFU, N4BP2L2 / Fold change vs veh, N4BP2L2 / RFU, ARFIP1 / Fold change vs veh, ARFIP1 / RFU, FAM179B / Fold change vs veh, FAM179B / RFU, BCL10 / Fold change vs veh, BCL10 / RFU, UHRF1BP1L / Fold change vs veh, UHRF1BP1L / RFU, BET1 / Fold change vs veh, BET1 / RFU, CNOT2 / Fold change vs veh, CNOT2 / RFU, ZNF268 / Fold change vs veh, ZNF268 / Fold change vs veh, ZNF507 / RFU, DGCR2 / Fold change vs veh, DGCR2 / RFU, WDSUB1 / Fold change vs veh, WDSUB1 / Fold change vs veh, HSP90B1 /// MIR3652 / RFU, ADSS / Fold change vs veh, ADSS / RFU, GK / Fold change vs veh, GK / RFU, ZNF148 / Fold change vs veh, ZNF148 / RFU, TAF9 / Fold change vs veh, TAF9 / RFU, SLC1A5 / Fold change vs veh, SLC1A5 / RFU, SLMO2 / Fold change vs veh, SLMO2 / RFU, ABCC4 / Fold change vs veh, ABCC4 / RFU, LOC101060439 /// RAP1B / Fold change vs veh, LOC101060439 /// RAP1B / RFU, RFX7 / Fold change vs veh, RFX7 / RFU, GTPBP10 / Fold change vs veh, GTPBP10 / RFU, CNEP1R1 / Fold change vs veh, CNEP1R1 / RFU, BIVM-ERCC5 /// ERCC5 / Fold change vs veh, BIVM-ERCC5 /// ERCC5 / RFU, ILF3 / Fold change vs veh, ILF3 / RFU 11762660_at / Fold change /veh 11762660_at / RFU VCAN (11757783_s_at) / Fold change /veh VCAN (11757783_s_at) / RFU DDX43 (11728927_at) / Fold change /veh DDX43 (11728927_at) / RFU KRT8 (11758188_x_at) / Fold change /veh KRT8 (11758188_x_at) / RFU NKD1 (11759106_at) / Fold change /veh NKD1 (11759106_at) / RFU SRD5A1 (11742802_a_at) / Fold change /veh SRD5A1 (11742802_a_at) / RFU TPSAB1 /// TPSB2 (11721975_s_at) / Fold change /veh TPSAB1 /// TPSB2 (11721975_s_at) / RFU GSTM3 (11746129_a_at) / Fold change /veh GSTM3 (11746129_a_at) / RFU IL23R (11737362_x_at) / Fold change /veh IL23R (11737362_x_at) / RFU TMEM51 (11727254_a_at) / Fold change /veh TMEM51 (11727254_a_at) / RFU PIWIL2 (11732686_x_at) / Fold change /veh PIWIL2 (11732686_x_at) / RFU ORM1 (11744905_x_at) / Fold change /veh ORM1 (11744905_x_at) / RFU CCDC152 (11743942_at) / Fold change /veh CCDC152 (11743942_at) / RFU ECM1 (11717891_a_at) / Fold change /veh ECM1 (11717891_a_at) / RFU IL23R (11748794_a_at) / Fold change /veh IL23R (11748794_a_at) / RFU TNFAIP8L3 (11732012_x_at) / Fold change /veh TNFAIP8L3 (11732012_x_at) / RFU MBOAT4 (11741988_at) / Fold change /veh MBOAT4 (11741988_at) / RFU 11764193_at / Fold change /veh 11764193_at / RFU TMEM53 (11763286_at) / Fold change /veh TMEM53 (11763286_at) / RFU MAGEB2 (11727129_at) / Fold change /veh MAGEB2 (11727129_at) / RFU TMEM200A (11744735_a_at) / Fold change /veh TMEM200A (11744735_a_at) / RFU CCDC152 (11751479_a_at) / Fold change /veh CCDC152 (11751479_a_at) / RFU FAM211A (11726209_a_at) / Fold change /veh FAM211A (11726209_a_at) / RFU RGS16 (11746705_a_at) / Fold change /veh RGS16 (11746705_a_at) / RFU VCAN (11755009_s_at) / Fold change /veh VCAN (11755009_s_at) / RFU RHOB (11743442_s_at) / Fold change /veh RHOB (11743442_s_at) / RFU RGS16 (11720943_a_at) / Fold change /veh RGS16 (11720943_a_at) / RFU RGS16 (11720944_at) / Fold change /veh RGS16 (11720944_at) / RFU, VPS4B / Fold change vs veh, VPS4B / RFU, CREB1 / Fold change vs veh, CREB1 / RFU, DNAJC13 / Fold change vs veh, DNAJC13 / RFU, GNAQ / Fold change vs veh, GNAQ / RFU, CDK5R1 / Fold change vs veh, CDK5R1 / RFU, ZRANB3 / Fold change vs veh, ZRANB3 / RFU, CUL4A / Fold change vs veh, CUL4A / RFU, CCNY / Fold change vs veh, CCNY / RFU, UFL1 / Fold change vs veh, UFL1 / RFU, COG3 / Fold change vs veh, COG3 / RFU, DIAPH2 / Fold change vs veh, DIAPH2 / RFU, SKA2 / Fold change vs veh, SKA2 / RFU, AFF3 / Fold change vs veh, AFF3 / RFU, LMF1 / Fold change vs veh, LMF1 / RFU, IPO11 / Fold change vs veh, IPO11 / RFU, DFFB / Fold change vs veh, DFFB / RFU, FOXP1 / Fold change vs veh, FOXP1 / RFU, CARD8 / Fold change vs veh, CARD8 / RFU, STRN3 / Fold change vs veh, STRN3 / RFU, ADK / Fold change vs veh, ADK / RFU, RASSF2 / Fold change vs veh, RASSF2 / RFU, WIPF1 / Fold change vs veh, WIPF1 / RFU, LARP1B / Fold change vs veh, LARP1B / RFU, RASA1 / Fold change vs veh, RASA1 / RFU, RB1 / Fold change vs veh, RB1 / RFU, PPFIA1 / Fold change vs veh, PPFIA1 / RFU, MAT2A / Fold change vs veh, MAT2A / RFU, CCT5 / Fold change vs veh, CCT5 / RFU, WDR92 / Fold change vs veh, WDR92 / RFU, CUX1 / Fold change vs veh, CUX1 / RFU, TTC7A / Fold change vs veh, TTC7A / RFU, TMEM135 / Fold change vs veh, TMEM135 / RFU, DEPTOR / Fold change vs veh, DEPTOR / RFU, CPM / Fold change vs veh, CPM / RFU, DNAJB6 / Fold change vs veh, DNAJB6 / RFU, CACNA2D3 / Fold change vs veh, CACNA2D3 / RFU, DTX4 / Fold change vs veh, DTX4 / RFU, TFCP2 / Fold change vs veh, TFCP2 / RFU, GMCL1 /// GMCL1P1 / Fold change vs veh, GMCL1 /// GMCL1P1 / RFU, AEBP2 / Fold change vs veh, AEBP2 / RFU, SNHG1 /// SNORD22 /// SNORD25 /// SNORD26 /// SNORD27 /// SNORD28 /// SNORD29 /// SNORD31 / Fold change vs veh, SNHG1 /// SNORD22 /// SNORD25 /// SNORD26 /// SNORD27 /// SNORD28 /// SNORD29 /// SNORD31 / Fold change (Aza/veh), C12orf56 (ProbeSet 11735607_a_at) / Fold change (ACY-1035/veh), C12orf56 (ProbeSet 11735607_a_at) / Fold change (Aza/veh), FGFR1OP (ProbeSet 11751329_s_at) / Fold change (ACY-1035/veh), FGFR1OP (ProbeSet 11751329_s_at) / Fold change (Aza/veh), VPS36 (ProbeSet 11739960_a_at) / Fold change (ACY-1035/veh), VPS36 (ProbeSet 11739960_a_at) / RFU SYPL1 (11715823_x_at) / Fold change /veh SYPL1 (11715823_x_at) / RFU IGFBP7 (11715501_s_at) / Fold change /veh IGFBP7 (11715501_s_at) / RFU REEP3 (11722064_at) / Fold change /veh REEP3 (11722064_at) / RFU IGLL1 (11728026_x_at) / Fold change /veh IGLL1 (11728026_x_at): dose or concentration left out as unconfirmed
Conditions: MV-4-11 cells, 48 hours

Nc1ncn([C@@H]2O[C@H](CO)[C@@H](O)[C@H]2O)c(=O)n1 [azacitidine]
Fold change /veh DDX43 (11728927_at): 1.23
